{"source": "patent US8247211B2", "about": "“Glycopeptide antibiotics” (American Cyanamid Company, priority 2001, dated 2012)", "key": {"[1]": {"system": "Enterococcus sp.", "assay": "In vitro antibacterial evaluation: minimum inhibitory concentration (MIC), broth dilution method", "format": "cell-based", "settings": "broth dilution, 5×10^5 CFU/mL, 18 hours at 35° C.", "how_it_was_run": "(§1)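 First, organisms are seeded at 5×10^5 CFU/mL into Muller-Hinton II […]. Next, antibiotic is applied across 64-0.06 μg/mL by broth dilution (NCCLS M7-A2). Finally, the lowest inhibitory concentration is recorded as MIC.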"}, "[2]": {"system": "Escherichia coli", "assay": "In vitro antibacterial evaluation: minimum inhibitory concentration (MIC), broth dilution method", "format": "cell-based", "settings": "5×10^5 CFU/mL, 18 hours at 35° C.", "how_it_was_run": "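MIC read as lowest drug level preventing visible growth. Organisms at 5×10^5 CFU/mL were exposed to a 64-0.06 μg/mL dilution series in Muller-Hinton II […] following NCCLS broth dilution standard M7-A2.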"}, "[3]": {"system": "Staphylococcus sp.", "assay": "In vitro antibacterial evaluation: minimum inhibitory concentration (MIC), broth dilution method", "format": "cell-based", "settings": "for MIC Staphylococcus aureus (ATCC 29213): strain ATCC 29213; for MIC Staphylococcus aureus (GC 1131): strain GC 1131; for MIC Staphylococcus aureus (GC 4541): strain GC 4541; for MIC Staphylococcus aureus (GC 4542): strain GC 4542; for MIC Staphylococcus aureus-SMITH (GC 4543): strain GC 4543; for MIC Staphylococcus aureus (GC 4544): strain GC 4544; for MIC Staphylococcus aureus (GC 4545): strain GC 4545; for MIC Staphylococcus haemolyticus (GC 4546): strain GC 4546; for MIC Coagulase Negative Staphylococcus (GC 4547): strain GC 4547; for MIC Coagulase Negative Staphylococcus (GC 4548): strain GC 4548; for MIC Coagulase Negative Staphylococcus (GC 4549): strain GC 4549; for MIC Coagulase Negative Staphylococcus (GC 4551): strain GC 4551; for MIC Coagulase Negative Staphylococcus (GC 6257): strain GC 6257; for MIC Coagulase Negative Staphylococcus (ID-3941): strain ID-3941", "how_it_was_run": "as §1"}, "[4]": {"system": "Streptococcus sp.", "assay": "In vitro antibacterial evaluation: minimum inhibitory concentration (MIC), broth dilution method", "format": "cell-based", "settings": "broth dilution, 5×10^5 CFU/mL, 18 hours at 35° C.", "how_it_was_run": "as §1"}, "[5]": {"system": "Enterococcus faecalis (GC 6189), vancomycin resistant strain", "assay": "Acute lethal infection in mice (ED50)", "format": "in vivo", "settings": "female CD-1 mice, intraperitoneal challenge, intravenous dose 30 min. after infection, 7 day survival ratios", "how_it_was_run": "(§2)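 Female CD-1 mice (20 ± 1-2 g) were infected intraperitoneally with enough bacteria, suspended in Trypticase Soy Broth or hog gastric mucin, to kill untreated controls within 24-48 hr. Compound in saline or 5% dextrose was given intravenously 30 min after infection. ED50 came from pooled 7-day survival over 3 tests.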"}, "[6]": {"system": "Staphylococcus aureus-SMITH (GC 4543)", "assay": "Acute lethal infection in mice (ED50)", "format": "in vivo", "settings": "female CD-1 mice, intraperitoneal challenge, intravenous dose 30 min. after infection, 7 day survival ratios", "how_it_was_run": "as §2"}, "[7]": {"system": "Streptococcus pneumoniae (GC 1894), penicillin resistant strain", "assay": "Acute lethal infection in mice (ED50)", "format": "in vivo", "settings": "female CD-1 mice, intraperitoneal challenge, intravenous dose 30 min. after infection, 7 day survival ratios", "how_it_was_run": "as §2"}, "[8]": {"settings": "broth dilution, 18 hours at 35° C."}}}
{"compound": "CC(c1ccccc1)C1NC(=O)CNC(=O)C(CO)NC(=O)C(C(O)C2CNC(=N)N2C2OC(CO)C(O)C(O)C2O)NC(=O)C(C(O)C2CNC(=N)N2)NC(=O)C(Cc2ccc(OC3OC(CO)C(OC4OC5COC(C6CCCCC6)OC5C(O)C4O)C(O)C3O)cc2)NC1=O", "note": "(centres unmarked) [Example 112]", "values": [{"measurement": "MIC Enterococccus avium (GC 4558)", "setting": "[1]", "value": 2, "unit": "µg/mL"}, {"measurement": "MIC Enterococccus faecalis (ATCC 29212)", "setting": "[1]", "value": 2, "unit": "µg/mL"}, {"measurement": "MIC Enterococccus faecalis (GC 2691)", "setting": "[1]", "value": 2, "unit": "µg/mL"}, {"measurement": "MIC Enterococccus faecalis (GC 3059)", "setting": "[1]", "value": 2, "unit": "µg/mL"}, {"measurement": "MIC Enterococccus faecalis (GC 4552)", "setting": "[1]", "value": 2, "unit": "µg/mL"}, {"measurement": "MIC Enterococccus faecalis (GC 4553)", "setting": "[1]", "value": "2 to 4", "unit": "µg/mL"}, {"measurement": "MIC Enterococccus faecalis (GC 4554)", "setting": "[1]", "value": 2, "unit": "µg/mL"}, {"measurement": "MIC Enterococccus faecalis (GC 6189)", "setting": "[1]", "value": 2, "unit": "µg/mL"}, {"measurement": "MIC Enterococccus faecium (GC 2243)", "setting": "[1]", "value": "1 to 2", "unit": "µg/mL"}, {"measurement": "MIC Enterococccus faecium (GC 4556)", "setting": "[1]", "value": 2, "unit": "µg/mL"}, {"measurement": "MIC Enterococccus faecium (GC 4557)", "setting": "[1]", "value": "0.5 to 2", "unit": "µg/mL"}, {"measurement": "MIC Enterococcus faecalis (GC 2242)", "setting": "[1]", "value": "1 to 2", "unit": "µg/mL"}, {"measurement": "MIC Escherichia coli (ATCC 25922)", "setting": "[2]", "value": 32, "unit": "µg/mL"}, {"measurement": "MIC Escherichia coli (GC 4559)", "setting": "[2]", "value": ">16", "unit": "µg/mL"}, {"measurement": "MIC Escherichia coli (GC 4560)", "setting": "[2]", "value": 1, "unit": "µg/mL"}, {"measurement": "MIC Staphylococcus aureus (ATCC 29213)", "setting": "[3]", "value": 1, "unit": "µg/mL"}, {"measurement": "MIC Staphylococcus aureus (ATCC 29213)", "setting": "[3]; [8]", "value": 1, "unit": "µg/mL"}, {"measurement": "MIC Staphylococcus aureus (GC 1131)", "setting": "[3]", "value": "0.5 to 1", "unit": "µg/mL"}, {"measurement": "MIC Staphylococcus aureus (GC 1131)", "setting": "[3]; [8]", "value": "0.5 to 1", "unit": "µg/mL"}, {"measurement": "MIC Staphylococcus aureus (GC 4541)", "setting": "[3]", "value": 1, "unit": "µg/mL"}, {"measurement": "MIC Staphylococcus aureus (GC 4541)", "setting": "[3]; [8]", "value": 1, "unit": "µg/mL"}, {"measurement": "MIC Staphylococcus aureus (GC 4542)", "setting": "[3]", "value": 1, "unit": "µg/mL"}, {"measurement": "MIC Staphylococcus aureus (GC 4542)", "setting": "[3]; [8]", "value": 1, "unit": "µg/mL"}, {"measurement": "MIC Staphylococcus aureus-SMITH (GC 4543)", "setting": "[3]; 18 hours at 35° C.", "value": "0.5 to 1", "unit": "µg/mL"}, {"measurement": "MIC Staphylococcus aureus-SMITH (GC 4543)", "setting": "[3]; [8]", "value": "0.5 to 1", "unit": "µg/mL"}, {"measurement": "MIC Staphylococcus aureus (GC 4544)", "setting": "[3]", "value": "0.5 to 2", "unit": "µg/mL"}, {"measurement": "MIC Staphylococcus aureus (GC 4544)", "setting": "[3]; [8]", "value": "0.5 to 2", "unit": "µg/mL"}, {"measurement": "MIC Staphylococcus aureus (GC 4545)", "setting": "[3]", "value": "1 to 2", "unit": "µg/mL"}, {"measurement": "MIC Staphylococcus aureus (GC 4545)", "setting": "[3]; [8]", "value": "1 to 2", "unit": "µg/mL"}, {"measurement": "MIC Staphylococcus haemolyticus (GC 4546)", "setting": "[3]", "value": 1, "unit": "µg/mL"}, {"measurement": "MIC Staphylococcus haemolyticus (GC 4546)", "setting": "[3]; [8]", "value": 1, "unit": "µg/mL"}, {"measurement": "MIC Coagulase Negative Staphylococcus (GC 4547)", "setting": "[3]", "value": "0.5 to 1", "unit": "µg/mL"}, {"measurement": "MIC Coagulase Negative Staphylococcus (GC 4547)", "setting": "[3]; [8]", "value": "0.5 to 1", "unit": "µg/mL"}, {"measurement": "MIC Coagulase Negative Staphylococcus (GC 4548)", "setting": "[3]", "value": "0.5 to 1", "unit": "µg/mL"}, {"measurement": "MIC Coagulase Negative Staphylococcus (GC 4548)", "setting": "[3]; [8]", "value": "0.5 to 1", "unit": "µg/mL"}, {"measurement": "MIC Coagulase Negative Staphylococcus (GC 4549)", "setting": "[3]", "value": "0.5 to 1", "unit": "µg/mL"}, {"measurement": "MIC Coagulase Negative Staphylococcus (GC 4549)", "setting": "[3]; [8]", "value": "0.5 to 1", "unit": "µg/mL"}, {"measurement": "MIC Coagulase Negative Staphylococcus (GC 4551)", "setting": "[3]", "value": "0.5 to 1", "unit": "µg/mL"}, {"measurement": "MIC Coagulase Negative Staphylococcus (GC 4551)", "setting": "[3]; [8]", "value": "0.5 to 1", "unit": "µg/mL"}, {"measurement": "MIC Coagulase Negative Staphylococcus (GC 6257)", "setting": "[3]", "value": 1, "unit": "µg/mL"}, {"measurement": "MIC Coagulase Negative Staphylococcus (GC 6257)", "setting": "[3]; [8]", "value": 1, "unit": "µg/mL"}, {"measurement": "MIC Coagulase Negative Staphylococcus (ID-3941)", "setting": "[3]", "value": 0.5, "unit": "µg/mL"}, {"measurement": "MIC Coagulase Negative Staphylococcus (ID-3941)", "setting": "[3]; [8]", "value": 0.5, "unit": "µg/mL"}, {"measurement": "MIC Streptococcus agalactiae (GC 4564)", "setting": "[4]", "value": "<0.12", "unit": "µg/mL"}, {"measurement": "MIC Streptococcus pneumoniae (GC 4565)", "setting": "[4]", "value": "<0.12", "unit": "µg/mL"}, {"measurement": "MIC Streptococcus pyogenes (GC 4563)", "setting": "[4]", "value": "<0.12", "unit": "µg/mL"}, {"measurement": "MIC Streptococcus pyogenes (ID-3187)", "setting": "[4]", "value": 0.5, "unit": "µg/mL"}, {"measurement": "median effective dose (ED50), Enterococcus faecalis (GC 6189)", "setting": "[5]", "value": "0.19-0.28"}, {"measurement": "median effective dose (ED50), Staphylococcus aureus-SMITH (GC 4543)", "setting": "[6]", "value": "0.07-0.08"}, {"measurement": "median effective dose (ED50), Streptococcus pneumoniae (GC 1894)", "setting": "[7]", "value": 0.02, "unit": "mg/kg"}]}
